From the supplement of paper PMC10307832

Legend:
Experiment in all cases: relative viability (nuclei count vs DMSO), 5 days (fraction); higher = more cells survive
[1] = compound: CC(C)=CC[C@@H](O)C1=CC(=O)c2c(O)ccc(O)c2C1=O [Shikonin] + CC1(C)CCC(c2ccc(Cl)cc2)=C(CN2CCN(c3ccc(C(=O)NS(=O)(=O)c4ccc(N[C@H](CCN5CCOCC5)CSc5ccccc5)c(S(=O)(=O)C(F)(F)F)c4)cc3)CC2)C1 [Navitoclax] (partner 0.5 µM)
Procedure, shortened: (§1)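 Lung cancer cell lines were pin-tool dosed in 1536-well plates on the day after seeding, with either a lone drug or a fixed anchor-drug dose plus five library-drug doses (not always all listed) in √10 steps. Nuclei were counted on 4× images after 5 days. Relative viability is the ratio of treated-well to vehicle-well nuclei counts, with each value a median of duplicate plates.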

[2] = compound: CC(C)N(CCCNC(=O)Nc1ccc(C(C)(C)C)cc1)C[C@H]1O[C@@H](n2ccc3c(N)ncnc32)[C@H](O)[C@@H]1O
Procedure, shortened: (§2)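 Lung cancer cell lines in 1536-well plates were kept overnight at 37 °C, then pinned with five library-drug doses (not always all listed) spaced by √10 on vehicle-anchored plates. After 5 days without medium change, cells were fixed, permeabilised and Hoechst-stained in one step, imaged at 4×, and nuclei were counted with MetaXpress. Viability is treated-well nuclei divided by vehicle-well nuclei, taken as the median over plates. Plates passed only with control CV below 25% and at least one doubling.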

[3] = compound: CC(C)=CC[C@@H](O)C1=CC(=O)c2c(O)ccc(O)c2C1=O [Shikonin]
Procedure, shortened: as §2

[4] = compound: CC(C)N(CCCNC(=O)Nc1ccc(C(C)(C)C)cc1)C[C@H]1O[C@@H](n2ccc3c(N)ncnc32)[C@H](O)[C@@H]1O + N=C(N)NC(=N)NCCc1ccccc1 [Phenformin] (partner 250 µM)
Procedure, shortened: as §1

Row | Cell Line | relative viability ([1]; first compound 0.01 µM) | relative viability ([1]; first compound 0.1 µM) | relative viability ([1]; first compound 0.3162 µM) | relative viability ([1]; first compound 1 µM) | relative viability ([2]; 0.08 µM) | relative viability ([2]; 0.253 µM) | relative viability ([2]; 0.8 µM) | relative viability ([2]; 2.53 µM) | relative viability ([2]; 8 µM) | relative viability ([3]; 0.01 µM) | relative viability ([3]; 0.1 µM) | relative viability ([3]; 0.3162 µM) | relative viability ([3]; 1 µM) | relative viability ([4]; first compound 0.08 µM) | relative viability ([4]; first compound 0.253 µM) | relative viability ([4]; first compound 0.8 µM) | relative viability ([4]; first compound 2.53 µM) | relative viability ([4]; first compound 8 µM)
1 | Calu-6 | 1.1 | 1.11 | 0.981 | 0.448 | 1 | 1.03 | 0.996 | 1.04 | 0.966 | 1.05 | 1.11 | 1.04 | 0.93 | – | – | – | – | –
2 | LC-2-ad | 0.493 | 0.413 | 0.552 | 0.465 | 0.978 | 1.03 | 0.731 | 0.944 | 0.882 | 0.965 | 1.05 | 1.01 | 1.01 | 0.587 | 0.546 | 0.526 | 0.6 | 0.565
3 | CAL-12T | 1.29 | 1.3 | 1.32 | 1.22 | 0.937 | 0.906 | 0.992 | 0.969 | 0.938 | 1.03 | 1.07 | 0.981 | 0.991 | 0.539 | 0.597 | 0.585 | 0.56 | 0.489
4 | SW 1573 | 1.2 | 1.13 | 1.01 | 0.869 | 0.968 | 0.966 | 1.07 | 1.11 | 0.984 | 1.1 | 0.967 | 0.894 | 0.721 | 0.262 | 0.403 | 0.435 | 0.391 | 0.378
5 | NCI-H1650 | 1.3 | 1.24 | 1.05 | 1.07 | 0.865 | 0.909 | – | 0.952 | 0.934 | 0.914 | 0.992 | 0.782 | 0.962 | 0.311 | 0.424 | – | 0.429 | 0.473
6 | BEN | 0.0555 | 0.0688 | 0.0568 | 0.096 | 0.954 | 1.02 | 0.948 | 0.863 | 1.03 | 0.926 | 1 | 1.03 | 1.18 | 0.254 | 0.258 | 0.265 | 0.246 | 0.287
7 | ABC-1 | – | – | – | – | 0.859 | 0.797 | – | 1.05 | 1.01 | 0.921 | 1.13 | 0.91 | 0.764 | 0.235 | 0.246 | – | 0.266 | 0.233
8 | NCI-H1299 | 1.03 | 1.09 | 1.06 | 1.05 | 0.979 | 1.01 | 0.955 | 0.999 | 0.963 | 1.05 | 1.06 | 1.01 | 0.973 | – | – | – | – | –
9 | EBC-1 | 0.366 | 0.392 | 0.352 | 0.254 | 0.926 | 0.96 | 0.874 | 0.941 | 0.808 | 1.06 | 0.997 | 1.05 | 0.962 | – | – | – | – | –
10 | NCI-H1648 | – | – | – | – | 0.756 | 0.935 | 0.68 | 0.784 | 0.823 | 0.911 | 0.686 | 1.07 | 1.08 | – | – | – | – | –
11 | NCI-H650 | – | – | – | – | 0.831 | 0.902 | 1.06 | 0.775 | 0.882 | 1.08 | 0.937 | 0.999 | 0.913 | 0.433 | 0.456 | 0.514 | 0.417 | 0.411
12 | NCI-H661 | – | – | – | – | 1.04 | 0.962 | 1.04 | 1.02 | 1 | 1 | 1.06 | 1.06 | 0.928 | 0.28 | 0.27 | 0.276 | 0.288 | 0.305
13 | NCI-H358 | – | – | – | – | 0.856 | 0.873 | 1.04 | 0.924 | 0.889 | 0.978 | 0.862 | 0.967 | 0.979 | 0.291 | 0.303 | 0.383 | 0.286 | 0.273
14 | NCI-H1563 | – | – | – | – | 0.918 | 0.849 | 0.944 | 1.03 | 0.957 | 0.944 | 0.954 | 1.01 | 0.959 | 0.67 | 0.627 | 0.626 | 0.666 | 0.697
15 | NCI-H522 | – | – | – | – | 0.868 | 0.898 | 0.885 | 0.99 | 0.997 | 0.962 | 1.09 | 0.955 | 0.956 | 0.606 | 0.673 | 0.677 | 0.664 | 0.56
16 | IA-LM | 0.879 | 0.858 | 0.796 | 0.654 | 1.02 | 0.879 | 1.02 | 0.963 | 0.84 | 1.13 | 0.875 | 1.05 | 0.859 | – | – | – | – | –
17 | NCI-H1703 | 1.12 | 1.08 | 0.991 | 0.19 | 0.913 | 1.04 | 0.803 | 1.03 | 0.782 | 0.994 | 1.21 | 0.864 | 0.646 | – | – | – | – | –
18 | LCLC-103H | – | – | – | – | 0.946 | 0.966 | 0.857 | 0.839 | 1.01 | 0.946 | 1.2 | 1.05 | 1.08 | 0.326 | 0.342 | 0.304 | 0.261 | 0.304
19 | SW 900 | – | – | – | – | 0.787 | 0.705 | – | 0.886 | 0.812 | 0.746 | 0.918 | 0.709 | 0.851 | 0.719 | 0.634 | – | 0.541 | 0.486
